# Laboratory results published in patent publication US8273774B2, “Phenoxypyridinylamide compounds” (AstraZeneca AB, priority 2008, dated 2012).
# Target: recombinant Human Phosphodiesterase B2 (PDE4B2) (Homo sapiens, UniProt Q07343)
# Assay: Human Phosphodiesterase B2 Radiometric Assay
# Format: biochemical
# Details: 0.1 μg/mL recombinant PDE4B2; preincubated at 30 C for 30 min; [3H]cyclic AMP 8 nM, stopped after 20 min; yttrium silicate SPA beads; read-out: PDE4B2 pIC50 (converted)
# Outline: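 SPA read-out: product 5′AMP binds yttrium silicate beads (added with 18 mM ZnSO4 after 20 min) in preference to [3H]cAMP substrate, given at 8 nM final.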
# Chain of recombinant Human Phosphodiesterase B2 (PDE4B2) (Q07343 1-564 isoform Q07343-2): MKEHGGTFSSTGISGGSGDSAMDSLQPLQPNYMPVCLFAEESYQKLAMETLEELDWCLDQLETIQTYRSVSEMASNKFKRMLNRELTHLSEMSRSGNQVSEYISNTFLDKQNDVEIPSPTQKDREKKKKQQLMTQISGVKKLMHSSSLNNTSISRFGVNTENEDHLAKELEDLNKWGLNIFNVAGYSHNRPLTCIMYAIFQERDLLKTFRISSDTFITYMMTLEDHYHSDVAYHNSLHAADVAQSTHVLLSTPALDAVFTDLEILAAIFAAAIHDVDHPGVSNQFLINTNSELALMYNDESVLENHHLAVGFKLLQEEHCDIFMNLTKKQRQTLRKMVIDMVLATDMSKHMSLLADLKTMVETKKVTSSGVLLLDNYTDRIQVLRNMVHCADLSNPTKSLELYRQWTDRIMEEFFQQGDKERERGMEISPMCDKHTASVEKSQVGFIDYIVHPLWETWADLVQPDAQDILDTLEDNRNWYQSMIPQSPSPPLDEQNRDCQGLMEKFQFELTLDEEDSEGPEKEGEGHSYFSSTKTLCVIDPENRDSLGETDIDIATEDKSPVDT
row,SMILES,IC50
1,"Cc1ccc(O)c(C(=O)N[C@H]2CC[C@@H](NC(=O)c3cc(F)cnc3Oc3cccc(-c4ccc(O)c(CN5C[C@@H](C)N[C@@H](C)C5)c4)c3)CC2)c1 [Example 95, 2-(3′-(((3S,5R)-3,5-dimethylpiperazin-1-yl)methyl)-4′-hydroxybiphenyl-3-yloxy)-5-fluoro-N-((1s,4s)-4-(2-hydroxy-5-methylbenzamido)cyclohexyl)nicotinamide]",0.2 nM
2,"Cc1cccc2nc(C(=O)N[C@H]3CC[C@@H](NC(=O)c4cc(F)cnc4Oc4cccc(-c5ccc(CN6C[C@@H](C)N[C@@H](C)C6)c(O)c5)c4)CC3)cn12 [Example 96, N-((1s,4s)-4-(2-(4′-(((3S,5R)-3,5-dimethylpiperazin-1-yl)methyl)-3′-hydroxybiphenyl-3-yloxy)-5-fluoronicotinamido)cyclohexyl)-5-methylimidazo[1,2-a]pyridine-2-carboxamide]",0.2 nM
3,"C[C@@H]1CN(Cc2ccc(-c3cccc(Oc4ncc(F)cc4C(=O)N[C@H]4CC[C@@H](NC(=O)c5cc6ccccn6n5)CC4)c3)cc2O)C[C@H](C)N1 [Example 97, N-((1s,4s)-4-(2-(4′-(((3S,5R)-3,5-dimethylpiperazin-1-yl)methyl)-3′-hydroxybiphenyl-3-yloxy)-5-fluoronicotinamido)cyclohexyl)pyrazolo[1,5-a]pyridine-2-carboxamide]",0.126 nM
4,"Cc1nc(C(=O)N[C@H]2CC[C@@H](NC(=O)c3cc(F)cnc3Oc3cccc(-c4ccc(CN5C[C@@H](C)N[C@@H](C)C5)c(O)c4)c3)CC2)cs1 [Example 98, N-((1s,4s)-4-(2-(4′-(((3S,5R)-3,5-dimethylpiperazin-1-yl)methyl)-3′-hydroxybiphenyl-3-yloxy)-5-fluoronicotinamido)cyclohexyl)-2-methylthiazole-4-carboxamide]",0.1 nM
5,"C[C@@H]1CN(CCc2ccc(-c3cccc(Oc4ncc(F)cc4C(=O)N[C@H]4CC[C@@H](NC(=O)c5cnc6ccccc6n5)CC4)c3)cc2)C[C@H](C)N1 [Example 99, N-((1s,4s)-4-(2-(4′-(2-((3S,5R)-3,5-dimethylpiperazin-1-yl)ethyl)biphenyl-3-yloxy)-5-fluoronicotinamido)cyclohexyl)quinoxaline-2-carboxamide]",0.0794 nM
6,"Cc1cccc2nc(C(=O)N[C@H]3CC[C@@H](NC(=O)c4cc(F)cnc4Oc4cccc(-c5cccc(CN6CCNCC6)c5)c4)CC3)cn12 [Example 100, N-((1s,4s)-4-(5-fluoro-2-(3′-(piperazin-1-ylmethyl)biphenyl-3-yloxy)nicotinamido)cyclohexyl)-5-methylimidazo[1,2-a]pyridine-2-carboxamide]",0.158 nM
7,"C[C@@H]1CN(Cc2cc(-c3cccc(Oc4ncc(F)cc4C(=O)N[C@H]4CC[C@@H](NC(=O)c5cc6n(n5)CCCC6)CC4)c3)ccc2O)C[C@H](C)N1 [Example 101, N-((1s,4s)-4-(2-(3′-(((3R,5S)-3,5-dimethylpiperazin-1-yl)methyl)-4′-hydroxybiphenyl-3-yloxy)-5-fluoronicotinamido)cyclohexyl)-4,5,6,7-tetrahydropyrazolo[1,5-a]pyridine-2-carboxamide]",0.0631 nM
8,"Cc1cc(C(=O)N[C@H]2CC[C@@H](NC(=O)c3cc(F)cnc3Oc3cccc(-c4cccc(CCN5CCNCC5)c4)c3)CC2)nn1C [Example 102, N-((1s,4s)-4-(1,5-dimethyl-1H-pyrazole-3-carboxamido)cyclohexyl)-5-fluoro-2-(3′-(2-(piperazin-1-yl)ethyl)biphenyl-3-yloxy)nicotinamide]",0.0398 nM
9,"Cc1cc(C(=O)N[C@H]2CC[C@@H](NC(=O)c3cc(F)cnc3Oc3cccc(-c4cccc(CCN5C[C@@H](C)N[C@@H](C)C5)c4)c3)CC2)nn1C [Example 103, N-((1s,4s)-4-(1,5-dimethyl-1H-pyrazole-3-carboxamido)cyclohexyl)-2-(3′-(2-((3S,5R)-3,5-dimethylpiperazin-1-yl)ethyl)biphenyl-3-yloxy)-5-fluoronicotinamide]",0.0316 nM
